Assay results as given in ChEMBL document CHEMBL1201862, “PubChem BioAssay data set” (2004).
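All cell lines were grown in 96-well plates and treated with compound for 48 hours. At the GI50, growth is halved.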 Calls of active or inactive are those of the source. Rule as the data show it: active = GI50 up to about 1.1 µM and inactive = higher.

How the values were obtained:
Assay in all cases: NCI-60 cell line screen, 48 h
OVCAR-4 = system: OVCAR-4
OVCAR-8 = system: OVCAR-8
PC-3 = system: PC-3
SW-620 = system: SW-620
SK-MEL-2 = system: SK-MEL-2
UO-31 = system: UO-31
HL-60 = system: HL-60
SNB-75 = system: SNB-75
SF-268 = system: SF-268
Hs-578T = system: Hs-578T
SF-539 = system: SF-539
HOP-62 = system: HOP-62
K562 = system: K562
SK-OV-3 = system: SK-OV-3
RPMI-8226 = system: RPMI-8226
MOLT-4 = system: MOLT-4
TK-10 = system: TK-10
NCI-H226 = system: NCI-H226
MDA-N = system: MDA-N
MCF7 = system: MCF7

| Structure (SMILES) | GI50 (OVCAR-4) | GI50 (OVCAR-8) | GI50 (PC-3) | GI50 (SW-620) | GI50 (SK-MEL-2) | GI50 (UO-31) | GI50 (HL-60) | GI50 (SNB-75) | GI50 (SF-268) | GI50 (Hs-578T) | GI50 (SF-539) | GI50 (HOP-62) | GI50 (K562) | GI50 (SK-OV-3) | GI50 (RPMI-8226) | GI50 (MOLT-4) | GI50 (TK-10) | GI50 (NCI-H226) | GI50 (MDA-N) | GI50 (MCF7) |
| --- | --- | --- | --- | --- | --- | --- | --- | --- | --- | --- | --- | --- | --- | --- | --- | --- | --- | --- | --- | --- |
| Cc1ccc(Nc2nc(=O)c3c4ccccc4n(C(=O)OC(C)(C)C)c3s2)cc1 | 37.9 µM (inactive) | 39.7 µM (inactive) | 29 µM (inactive) | 28.4 µM (inactive) | 20.7 µM (inactive) | 5.9 µM (inactive) | 24.8 µM (inactive) | > 100 µM (inactive) | 20.6 µM (inactive) | 33.2 µM (inactive) | 26.6 µM (inactive) | 27.9 µM (inactive) | 27.4 µM (inactive) | > 100 µM (inactive) | 17.8 µM (inactive) | 53 µM (inactive) | 37.8 µM (inactive) | – | – | – |
| CN(C)c1ncnc2c1Cc1ccccc1C(=O)N2C | > 100 µM (inactive) | > 100 µM (inactive) | – | > 100 µM (inactive) | > 100 µM (inactive) | > 100 µM (inactive) | > 100 µM (inactive) | > 100 µM (inactive) | > 100 µM (inactive) | – | > 100 µM (inactive) | > 100 µM (inactive) | > 100 µM (inactive) | > 100 µM (inactive) | > 100 µM (inactive) | > 100 µM (inactive) | > 100 µM (inactive) | > 100 µM (inactive) | – | – |
| COc1ccc(NCc2cc(OC)cc(OC)c2)cc1 | 18.5 µM (inactive) | 49.1 µM (inactive) | – | 8.32 µM (inactive) | 7 µM (inactive) | 35.9 µM (inactive) | 7.6 µM (inactive) | 23.4 µM (inactive) | 26 µM (inactive) | – | 16.3 µM (inactive) | 8.53 µM (inactive) | 3.88 µM (inactive) | 30.1 µM (inactive) | 17 µM (inactive) | 17.1 µM (inactive) | 50.7 µM (inactive) | 38.3 µM (inactive) | – | – |
| C=C1CC[C@@H]2C(C)(C)C(O)CCC2(C)C1COc1ccc2ccc(=O)oc2c1 (stereo partly specified) | 13.5 µM (inactive) | 17.2 µM (inactive) | – | 22.1 µM (inactive) | 17.4 µM (inactive) | 16 µM (inactive) | 15.1 µM (inactive) | 18 µM (inactive) | 18.9 µM (inactive) | – | 16.8 µM (inactive) | 19.1 µM (inactive) | 16.6 µM (inactive) | 23.4 µM (inactive) | 12.4 µM (inactive) | 14.7 µM (inactive) | 19.8 µM (inactive) | 18.8 µM (inactive) | – | – |
| O=C(CN1CCN(Cc2ccccc2)CC1)c1ccc2[nH]c(=O)oc2c1 | > 100 µM (inactive) | > 100 µM (inactive) | > 100 µM (inactive) | > 100 µM (inactive) | > 100 µM (inactive) | 60.7 µM (inactive) | > 90.4 µM (inactive) | > 41.3 µM (inactive) | > 100 µM (inactive) | – | > 100 µM (inactive) | > 100 µM (inactive) | > 100 µM (inactive) | > 100 µM (inactive) | > 100 µM (inactive) | > 100 µM (inactive) | > 100 µM (inactive) | > 50.6 µM (inactive) | > 100 µM (inactive) | > 100 µM (inactive) |
| CC(C)[Si](OCC1CC(C#N)OC(C)(C)O1)(C(C)C)C(C)C (stereo unspecified) | 30.3 µM (inactive) | 21.1 µM (inactive) | – | 18.9 µM (inactive) | 16.2 µM (inactive) | 20.7 µM (inactive) | 13 µM (inactive) | 31.9 µM (inactive) | 26.9 µM (inactive) | – | 27.1 µM (inactive) | 23.7 µM (inactive) | 19 µM (inactive) | 21.3 µM (inactive) | 14.2 µM (inactive) | 19.6 µM (inactive) | 39.5 µM (inactive) | 19.1 µM (inactive) | – | – |
| COC1CCC2C(=O)CCCC2O1 (stereo unspecified) | > 100 µM (inactive) | > 100 µM (inactive) | – | > 100 µM (inactive) | > 100 µM (inactive) | > 100 µM (inactive) | > 100 µM (inactive) | > 100 µM (inactive) | > 100 µM (inactive) | – | > 100 µM (inactive) | > 100 µM (inactive) | > 100 µM (inactive) | > 100 µM (inactive) | > 100 µM (inactive) | > 100 µM (inactive) | > 100 µM (inactive) | > 100 µM (inactive) | – | – |
| CC(=O)c1cccc(Nc2nc3ccccc3c3occc23)c1 | 16.2 µM (inactive) | 20.4 µM (inactive) | 31.3 µM (inactive) | – | – | – | > 100 µM (inactive) | 22.7 µM (inactive) | 22.2 µM (inactive) | – | 15.5 µM (inactive) | 14 µM (inactive) | > 100 µM (inactive) | 17.8 µM (inactive) | > 100 µM (inactive) | > 100 µM (inactive) | 15 µM (inactive) | 2.03 µM (inactive) | – | 25.1 µM (inactive) |
| Cc1cc2[nH]c3c(C#N)c(-c4ccccc4)c(/N=N/c4cccc(C(F)(F)F)c4)c(=O)n3c2cc1C | 39.5 µM (inactive) | 26.1 µM (inactive) | 32.2 µM (inactive) | 35.8 µM (inactive) | 58.1 µM (inactive) | 31.3 µM (inactive) | – | > 100 µM (inactive) | 32.6 µM (inactive) | – | 97.5 µM (inactive) | > 100 µM (inactive) | 0.0382 µM (active) | 32.4 µM (inactive) | 5.35 µM (inactive) | – | 50.4 µM (inactive) | 25.2 µM (inactive) | 28.3 µM (inactive) | 50.4 µM (inactive) |
| COc1c(O)c(OC)c2oc(-c3ccc(O)c(O)c3)c(OC)c(=O)c2c1O | 55 µM (inactive) | 32.1 µM (inactive) | 38.9 µM (inactive) | 36.1 µM (inactive) | 5.42 µM (inactive) | 28.1 µM (inactive) | 17.7 µM (inactive) | 3.62 µM (inactive) | 3.52 µM (inactive) | – | 14.6 µM (inactive) | 6.98 µM (inactive) | 18.5 µM (inactive) | 15.9 µM (inactive) | 31.8 µM (inactive) | 28.4 µM (inactive) | 30.5 µM (inactive) | 27.4 µM (inactive) | 37.3 µM (inactive) | 4.1 µM (inactive) |
| O=C1OC(Cl)C(N=P(c2ccccc2)(c2ccccc2)c2ccccc2)=C1Cl (stereo unspecified) | > 100 µM (inactive) | > 100 µM (inactive) | – | > 100 µM (inactive) | > 100 µM (inactive) | > 100 µM (inactive) | > 100 µM (inactive) | 36.4 µM (inactive) | > 100 µM (inactive) | – | 93.3 µM (inactive) | > 100 µM (inactive) | > 100 µM (inactive) | > 100 µM (inactive) | > 100 µM (inactive) | > 100 µM (inactive) | > 100 µM (inactive) | > 100 µM (inactive) | – | – |
| Cc1ccc(S(=O)(=O)/N=C(\NN)Nc2ccc(Cl)cc2)cc1 | > 100 µM (inactive) | > 100 µM (inactive) | > 100 µM (inactive) | > 100 µM (inactive) | > 100 µM (inactive) | > 100 µM (inactive) | > 100 µM (inactive) | 37.8 µM (inactive) | – | – | 35.2 µM (inactive) | > 100 µM (inactive) | > 100 µM (inactive) | > 100 µM (inactive) | > 100 µM (inactive) | > 100 µM (inactive) | > 100 µM (inactive) | 58.3 µM (inactive) | > 100 µM (inactive) | > 100 µM (inactive) |
